Data from ChEMBL document CHEMBL1681717, “Design and synthesis of a novel, orally active, brain penetrant, tri-substituted thiophene based JNK inhibitor” (Bioorg Med Chem Lett, 2011).

What was measured:
[1] = target: Mitogen-activated protein kinase 8 (Homo sapiens, UniProt P45983); test: Inhibition of recombinant JNK1 after 60 mins by TR-FRET assay
[2] = target: Mitogen-activated protein kinase 10 (Homo sapiens, UniProt P53779); test: Inhibition of recombinant JNK3 after 60 mins by TR-FRET assay
[3] = target: Mitogen-activated protein kinase 9 (Homo sapiens, UniProt P45984); test: Inhibition of recombinant JNK2 after 60 mins by TR-FRET assay
[4] = target: Mitogen-activated protein kinase 14 (Homo sapiens, UniProt Q16539); test: Inhibition of recombinant p38alpha after 60 mins by TR-FRET assay
[5] = target: Mitogen-activated protein kinase 1 (Homo sapiens, UniProt P28482); test: Inhibition of recombinant ERK2 after 60 mins by TR-FRET assay
Chain of Mitogen-activated protein kinase 1 (P28482 whole entry): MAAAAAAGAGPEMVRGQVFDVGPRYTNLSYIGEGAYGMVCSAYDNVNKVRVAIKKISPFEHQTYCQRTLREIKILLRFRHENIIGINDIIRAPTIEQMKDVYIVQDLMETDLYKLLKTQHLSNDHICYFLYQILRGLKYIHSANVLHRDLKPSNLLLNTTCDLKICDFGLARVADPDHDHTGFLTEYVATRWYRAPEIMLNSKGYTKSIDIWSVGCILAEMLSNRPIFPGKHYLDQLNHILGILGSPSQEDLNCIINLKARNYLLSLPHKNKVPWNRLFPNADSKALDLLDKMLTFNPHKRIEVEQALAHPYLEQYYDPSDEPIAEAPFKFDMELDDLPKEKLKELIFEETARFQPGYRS

Chain of Mitogen-activated protein kinase 10 (P53779 whole entry): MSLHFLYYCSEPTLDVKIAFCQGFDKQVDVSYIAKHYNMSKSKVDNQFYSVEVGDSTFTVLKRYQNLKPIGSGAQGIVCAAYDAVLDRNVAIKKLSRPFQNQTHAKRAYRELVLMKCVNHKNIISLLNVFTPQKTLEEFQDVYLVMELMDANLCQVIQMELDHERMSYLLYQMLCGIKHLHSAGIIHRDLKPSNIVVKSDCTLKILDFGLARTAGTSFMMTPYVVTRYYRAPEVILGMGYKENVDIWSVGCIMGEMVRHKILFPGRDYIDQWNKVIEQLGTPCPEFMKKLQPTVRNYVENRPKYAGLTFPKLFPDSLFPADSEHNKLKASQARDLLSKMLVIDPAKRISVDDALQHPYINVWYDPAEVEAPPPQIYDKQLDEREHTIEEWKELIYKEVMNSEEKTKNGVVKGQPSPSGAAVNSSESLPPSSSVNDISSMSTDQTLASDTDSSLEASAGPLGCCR
Chain of Mitogen-activated protein kinase 9 (P45984 whole entry): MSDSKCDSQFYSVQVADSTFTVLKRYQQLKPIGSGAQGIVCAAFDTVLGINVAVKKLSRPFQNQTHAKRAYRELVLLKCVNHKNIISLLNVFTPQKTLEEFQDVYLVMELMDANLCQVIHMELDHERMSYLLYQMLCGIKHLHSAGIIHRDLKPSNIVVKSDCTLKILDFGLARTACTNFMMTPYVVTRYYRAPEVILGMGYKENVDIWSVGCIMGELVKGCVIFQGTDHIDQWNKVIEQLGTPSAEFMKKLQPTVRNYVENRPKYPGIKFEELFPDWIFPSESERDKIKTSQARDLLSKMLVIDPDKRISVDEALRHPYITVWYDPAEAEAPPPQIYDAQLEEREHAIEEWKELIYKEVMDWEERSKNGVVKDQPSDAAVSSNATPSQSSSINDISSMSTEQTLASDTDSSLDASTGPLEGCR
Chain of Mitogen-activated protein kinase 8 (P45983 whole entry): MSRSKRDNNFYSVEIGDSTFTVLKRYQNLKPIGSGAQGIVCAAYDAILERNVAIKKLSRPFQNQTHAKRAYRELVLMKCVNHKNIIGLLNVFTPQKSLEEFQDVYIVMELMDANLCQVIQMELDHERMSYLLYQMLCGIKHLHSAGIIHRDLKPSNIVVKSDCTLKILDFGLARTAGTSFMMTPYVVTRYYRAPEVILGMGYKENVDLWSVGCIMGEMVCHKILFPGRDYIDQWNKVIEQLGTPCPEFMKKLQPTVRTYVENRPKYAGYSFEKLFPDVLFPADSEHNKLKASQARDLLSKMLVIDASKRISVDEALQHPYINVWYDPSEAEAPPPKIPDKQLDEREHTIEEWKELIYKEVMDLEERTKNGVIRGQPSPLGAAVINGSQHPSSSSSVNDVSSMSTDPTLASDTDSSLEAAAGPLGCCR
Chain of Mitogen-activated protein kinase 14 (Q16539 whole entry): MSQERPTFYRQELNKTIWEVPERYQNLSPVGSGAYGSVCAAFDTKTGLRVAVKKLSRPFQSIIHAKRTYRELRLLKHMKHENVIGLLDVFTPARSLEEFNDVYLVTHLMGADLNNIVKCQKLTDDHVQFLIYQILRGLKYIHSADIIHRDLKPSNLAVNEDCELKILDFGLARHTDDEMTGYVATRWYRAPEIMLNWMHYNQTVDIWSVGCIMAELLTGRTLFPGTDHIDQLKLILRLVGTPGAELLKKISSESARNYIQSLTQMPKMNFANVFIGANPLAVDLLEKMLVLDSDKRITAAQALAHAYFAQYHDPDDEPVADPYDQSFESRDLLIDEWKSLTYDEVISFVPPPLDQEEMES

Row | SMILES | IC50 [1] | IC50 [2] | IC50 [3] | IC50 [4] | IC50 [5]
1 | COC(=O)c1c(C)csc1NC(=O)Cc1cccc2nccnc12 | 95 nM | 162 nM | 765 nM | – | –
2 | COC(=O)c1c(C)csc1NC(=O)Cc1cccc2cc[nH]c12 | 686 nM | 1020 nM | 4150 nM | – | –
3 | N#Cc1csc(NC(=O)Cc2cccc3ncccc23)c1-c1nnc[nH]1 | 12 nM | 12 nM | 41 nM | > 50000 nM | 35100 nM
4 | O=C(Cc1cccc2ncccc12)Nc1scc(Br)c1-c1ncn[nH]1 | 42 nM | 34 nM | 90 nM | > 50000 nM | > 50000 nM
5 | COC(=O)c1c(C)csc1NC(=O)CN1C(=O)CCc2ccccc21 | 78 nM | 125 nM | 703 nM | – | –
6 | COC(=O)c1c(C)csc1NC(=O)Cc1ccc(-c2ccncc2)cc1 | 283 nM | 263 nM | 1840 nM | – | –
7 | O=C(CN1C(=O)CCc2ccccc21)Nc1scc(Br)c1-c1ncn[nH]1 | 25 nM | 28 nM | 42 nM | > 20000 nM | > 50000 nM
8 | O=C(Cc1cccc2cnccc12)Nc1scc(Br)c1-c1ncn[nH]1 | 28 nM | 33 nM | 50 nM | > 50000 nM | > 50000 nM
9 | Cc1n[nH]c(-c2c(C)csc2NC(=O)Cc2ccc(OCCCN3CCCCC3)cc2)n1 | 463 nM | 197 nM | 1620 nM | > 5000 nM | > 5000 nM
10 | COC(=O)c1c(C)csc1NC(=O)Cc1cccc2ncccc12 | 55 nM | 110 nM | 409 nM | – | –
11 | Cc1n[nH]c(-c2c(C)csc2NC(=O)CN2C(=O)CCc3ccccc32)n1 | 15 nM | 25 nM | 42 nM | > 50000 nM | > 50000 nM
12 | COC(=O)c1c(C)csc1NC(=O)Cc1cccc2cnccc12 | 31 nM | 62 nM | 863 nM | – | –
13 | Cc1n[nH]c(-c2c(C)csc2NC(=O)Cc2cccc3ncccc23)n1 | 45 nM | 80 nM | 81 nM | > 50000 nM | > 50000 nM
14 | Cc1nnc(-c2c(C)csc2NC(=O)Cc2ccc(-c3ccncc3)cc2)[nH]1 | – | 324 nM | – | > 5000 nM | > 5000 nM
15 | Cc1n[nH]c(-c2c(C)csc2NC(=O)Cc2cccc3nccnc23)n1 | 298 nM | 594 nM | 230 nM | > 5000 nM | > 5000 nM
16 | O=C(Cc1cccc2ncccc12)Nc1scc(Cl)c1-c1ncn[nH]1 | 15 nM | 18 nM | 42 nM | > 50000 nM | > 50000 nM

Results, then the compound that gave them:

Row | IC50 [1] | IC50 [2] | IC50 [3] | IC50 [4] | IC50 [5] | SMILES
17 | 350 nM | 310 nM | 930 nM | – | – | CCOC(=O)c1c(C#N)csc1NC(=O)Cc1ccc(OC)cc1
18 | 597 nM | 504 nM | 4520 nM | – | – | COC(=O)c1c(C)csc1NC(=O)Cc1ccc(OCCCn2ccnc2)cc1
19 | 15600 nM | 9620 nM | 6290 nM | – | – | CCOC(=O)c1c(C2CC2)csc1NC(=O)Cc1ccc(OC)cc1
20 | 331 nM | 465 nM | 824 nM | – | – | COc1ccc(CC(=O)Nc2scc(C)c2-c2nc(C)n[nH]2)cc1
21 | 18900 nM | 38800 nM | > 50000 nM | – | – | CCOC(=O)c1c(C(F)(F)F)csc1NC(=O)Cc1ccc(OC)cc1
22 | 295 nM | 99 nM | 613 nM | – | – | COC(=O)c1c(C)csc1NC(=O)Cc1ccc(OCCCN2CCCCC2)cc1
23 | 284 nM | 226 nM | 2570 nM | – | – | COC(=O)c1c(C)csc1NC(=O)Cc1ccc(OCCCN2CCCC2)cc1
24 | 590 nM | 700 nM | 3140 nM | – | – | COC(=O)c1c(C)csc1NC(=O)Cc1ccc(OC)cc1
25 | 1050 nM | 3020 nM | 28400 nM | – | – | C#Cc1csc(NC(=O)Cc2ccc(OC)cc2)c1C(=O)OCC
26 | 19300 nM | 9110 nM | 22500 nM | – | – | CCc1csc(NC(=O)Cc2ccc(OC)cc2)c1C(=O)OC
